Source: PubChem BioAssay AID248 (DTP/NCI, 2004)
Inconclusive results and toxic doses are left out. No stated cut-off is given here; in the data, active means T/C of 150% or more; inactive means T/C below 125%.

System: L1210 leukemia ip in BDF1 mice, survival T/C
Assay: NCI In Vivo Anticancer Drug Screen. Data for tumor model L1210 Leukemia (intraperitoneal) in B6D2F1 (BDF1) mice
Details: endpoint: mean survival time, higher = longer survival
How it was run: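 Tumor cells were implanted, animals were treated, and survival was followed. The result divides the treated measurement by the vehicle-control measurement.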

[1] = dose: 100.0 mg/kg/injection, schedule: Q01DX009 (ip), vehicle: Klucel (hydroxypropylcellulose) (HPC)
[2] = dose: 100.0 mg/kg/injection, schedule: Q04DX003 (ip), vehicle: Klucel (hydroxypropylcellulose) (HPC)
[3] = dose: 200.0 mg/kg/injection, schedule: Q01DX009 (ip), vehicle: Klucel (hydroxypropylcellulose) (HPC)
[4] = dose: 200.0 mg/kg/injection, schedule: Q04DX003 (ip), vehicle: Klucel (hydroxypropylcellulose) (HPC)
[5] = dose: 400.0 mg/kg/injection, schedule: Q04DX003 (ip), vehicle: Klucel (hydroxypropylcellulose) (HPC)
[6] = dose: 100.0 mg/kg/injection, schedule: Q01DX001 (ip), vehicle: carboxymethylcellulose (CMC)
[7] = dose: 200.0 mg/kg/injection, schedule: Q01DX001 (ip), vehicle: carboxymethylcellulose (CMC)
[8] = dose: 400.0 mg/kg/injection, schedule: Q01DX001 (ip), vehicle: carboxymethylcellulose (CMC)
[9] = dose: 100.0 mg/kg/injection, schedule: Q01DX009 (ip), vehicle: saline
[10] = dose: 200.0 mg/kg/injection, schedule: Q01DX009 (ip), vehicle: saline
[11] = dose: 400.0 mg/kg/injection, schedule: Q01DX009 (ip), vehicle: saline
[12] = dose: 100.0 mg/kg/injection, schedule: Q01DX001 (ip), vehicle: saline
[13] = dose: 200.0 mg/kg/injection, schedule: Q01DX001 (ip), vehicle: saline

Measured: T/C

COc1ccc(CNC(=O)NCCCl)cc1OC
inactive: [1] 102 % of control | [2] 115 % of control | [3] 103 % of control | [4] 113 % of control | [5] 101 % of control

CCOC(=O)CN(c1ccccc1C(=O)OC)S(=O)(=O)c1ccc(C)cc1
inactive: [6] 112 % of control | [7] 114 % of control | [8] 107 % of control

C/C(Cc1ccccc1)=N/N(C)C
inactive: dose: 100.0 mg/kg/injection, schedule: Q01DX009 (ip), vehicle: saline with Tween-80 113 % of control | dose: 100.0 mg/kg/injection, schedule: Q04DX003 (ip), vehicle: saline with Tween-80 102 % of control | dose: 200.0 mg/kg/injection, schedule: Q01DX009 (ip), vehicle: saline with Tween-80 104 % of control | dose: 200.0 mg/kg/injection, schedule: Q04DX003 (ip), vehicle: saline with Tween-80 95 % of control | dose: 400.0 mg/kg/injection, schedule: Q04DX003 (ip), vehicle: saline with Tween-80 95 % of control

COC(=O)/C=C\C=C(\CBr)C(=O)OC
inactive: dose: 6.25 mg/kg/injection, schedule: Q01DX009 (ip), vehicle: saline 104 % of control | dose: 6.25 mg/kg/injection, schedule: Q04DX003 (ip), vehicle: saline sonified 103 % of control | dose: 12.5 mg/kg/injection, schedule: Q01DX009 (ip), vehicle: saline 96 % of control | dose: 12.5 mg/kg/injection, schedule: Q04DX003 (ip), vehicle: saline sonified 97 % of control | dose: 25.0 mg/kg/injection, schedule: Q01DX009 (ip), vehicle: saline 110 % of control | dose: 25.0 mg/kg/injection, schedule: Q04DX003 (ip), vehicle: saline sonified 95 % of control

CC1CCCN(P(c2ccccc2)N2CCCC(C)C2)C1 (stereo not drawn)
inactive: dose: 100.0 mg/kg/injection, schedule: Q04DX002 (sc), vehicle: olive oil, sesame oil, peanut oil 97 % of control | dose: 200.0 mg/kg/injection, schedule: Q04DX002 (sc), vehicle: olive oil, sesame oil, peanut oil 100 % of control | dose: 400.0 mg/kg/injection, schedule: Q04DX002 (sc), vehicle: olive oil, sesame oil, peanut oil 100 % of control

O=C1CSCC(=O)N1
inactive: [9] 102 % of control | [10] 97 % of control | [11] 103 % of control

O=C(Nc1cccc([N+](=O)[O-])c1)c1ccc(C(=O)Nc2cccc([N+](=O)[O-])c2)cc1
inactive: dose: 100.0 mg/kg/injection, schedule: Q04DX002 (ip), vehicle: Klucel (hydroxypropylcellulose) (HPC) 98 % of control | dose: 200.0 mg/kg/injection, schedule: Q04DX002 (ip), vehicle: Klucel (hydroxypropylcellulose) (HPC) 91 % of control | dose: 400.0 mg/kg/injection, schedule: Q04DX002 (ip), vehicle: Klucel (hydroxypropylcellulose) (HPC) 86 % of control

O=C(Nc1ccc(F)cc1)c1ccccc1Cl
inactive: dose: 100.0 mg/kg/injection, schedule: Q01DX009 (ip), vehicle: acetone 98 % of control | dose: 200.0 mg/kg/injection, schedule: Q01DX009 (ip), vehicle: acetone 102 % of control | dose: 400.0 mg/kg/injection, schedule: Q01DX009 (ip), vehicle: acetone 102 % of control

NC(=O)NC1CC(c2ccccc2)C(O)(c2ccccc2)C1 (stereo not drawn)
inactive: dose: 50.0 mg/kg/injection, schedule: Q01DX001 (ip), vehicle: saline 86 % of control | [12] 92 % of control | [13] 90 % of control

CC1(C(N)=O)OC12CCCCC2CCC(=O)O (stereo not drawn)
inactive: [2] 102 % of control | [4] 93 % of control | [5] 93 % of control

COc1cc(N=O)c(C(=O)c2nccc3cc(OC)c(OC)cc23)cc1OC
inactive: [12] 104 % of control | [13] 91 % of control | dose: 400.0 mg/kg/injection, schedule: Q01DX001 (ip), vehicle: saline 94 % of control

CC(C)(NC(=O)NCCCl)c1ccccc1
inactive: [12] 96 % of control

CCOc1ccc(C(=O)/C=C\c2ccc(N(CC)CC)cc2)cc1
inactive: [1] 96 % of control | [3] 93 % of control | dose: 400.0 mg/kg/injection, schedule: Q01DX009 (ip), vehicle: Klucel (hydroxypropylcellulose) (HPC) 91 % of control

CC1=CC(C)=Nc2ccc(Cl)cc2N1
inactive: dose: 100.0 mg/kg/injection, schedule: Q04DX003 (ip), vehicle: acetone 97 % of control | dose: 200.0 mg/kg/injection, schedule: Q04DX003 (ip), vehicle: acetone 101 % of control | dose: 400.0 mg/kg/injection, schedule: Q04DX003 (ip), vehicle: acetone 92 % of control

NC(=NCCO)C(N)=NCCO
inactive: [9] 102 % of control | dose: 100.0 mg/kg/injection, schedule: Q04DX003 (ip), vehicle: saline 96 % of control | [10] 94 % of control | dose: 200.0 mg/kg/injection, schedule: Q04DX003 (ip), vehicle: saline 96 % of control | [11] 94 % of control | dose: 400.0 mg/kg/injection, schedule: Q04DX003 (ip), vehicle: saline 100 % of control

CCOP(OCC)SSCn1nc2ccc3ccccc3n2c1=O
inactive: dose: 50.0 mg/kg/injection, schedule: Q01DX009 (ip), vehicle: Klucel (hydroxypropylcellulose) (HPC) 101 % of control

C/C(=N\O)C(C)(C)O
inactive: dose: 100.0 mg/kg/injection, schedule: Q04DX002 (ip), vehicle: saline 101 % of control | dose: 200.0 mg/kg/injection, schedule: Q04DX002 (ip), vehicle: saline 108 % of control | dose: 400.0 mg/kg/injection, schedule: Q04DX002 (ip), vehicle: saline 105 % of control

CCCCC(Cl)(CCCC)C(C)Sc1ccc([N+](=O)[O-])cc1 (stereo not drawn)
inactive: [6] 103 % of control | [7] 94 % of control | [8] 100 % of control

CC(=O)CCC(CCC(C)=O)(CCC(C)=O)[N+](=O)[O-]
inactive: [6] 104 % of control | [7] 104 % of control | [8] 98 % of control
